Measured values from US7074789B2, “Kinase inhibitors” (Amgen Inc., priority 1999, dated 2006).

Assays:
Assay type in all cases: biochemical
EGFR = biological target: T1, EGFR (Homo sapiens, UniProt P00533); assay: Kinase inhibition assay (33P transfer), EGFR; conditions: Table 2, kinase inhibition class; read-out: EGFR-1
T1 construct: Kinases are expressed as either kinase domains or full length constructs; made in house
Summary of the method: (§1)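 GST/His-fusion kinases, E. coli or High Five expressed, affinity purified; 33P-ATP, plate-coated poly(Glu,Tyr) 4:1 or poly(Arg,Ser) 3:1; 0.5% H3PO4 wash, scintillant, LSC.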

ErbB2 = biological target: T2, ErbB2 (Homo sapiens, UniProt P04626); assay: Kinase inhibition assay (33P transfer), ErbB2; conditions: read-out: ErbB2-2
T2 construct: Kinases are expressed as either kinase domains or full length constructs; made in house
T2 sequence (P04626 23-1255, species assumed): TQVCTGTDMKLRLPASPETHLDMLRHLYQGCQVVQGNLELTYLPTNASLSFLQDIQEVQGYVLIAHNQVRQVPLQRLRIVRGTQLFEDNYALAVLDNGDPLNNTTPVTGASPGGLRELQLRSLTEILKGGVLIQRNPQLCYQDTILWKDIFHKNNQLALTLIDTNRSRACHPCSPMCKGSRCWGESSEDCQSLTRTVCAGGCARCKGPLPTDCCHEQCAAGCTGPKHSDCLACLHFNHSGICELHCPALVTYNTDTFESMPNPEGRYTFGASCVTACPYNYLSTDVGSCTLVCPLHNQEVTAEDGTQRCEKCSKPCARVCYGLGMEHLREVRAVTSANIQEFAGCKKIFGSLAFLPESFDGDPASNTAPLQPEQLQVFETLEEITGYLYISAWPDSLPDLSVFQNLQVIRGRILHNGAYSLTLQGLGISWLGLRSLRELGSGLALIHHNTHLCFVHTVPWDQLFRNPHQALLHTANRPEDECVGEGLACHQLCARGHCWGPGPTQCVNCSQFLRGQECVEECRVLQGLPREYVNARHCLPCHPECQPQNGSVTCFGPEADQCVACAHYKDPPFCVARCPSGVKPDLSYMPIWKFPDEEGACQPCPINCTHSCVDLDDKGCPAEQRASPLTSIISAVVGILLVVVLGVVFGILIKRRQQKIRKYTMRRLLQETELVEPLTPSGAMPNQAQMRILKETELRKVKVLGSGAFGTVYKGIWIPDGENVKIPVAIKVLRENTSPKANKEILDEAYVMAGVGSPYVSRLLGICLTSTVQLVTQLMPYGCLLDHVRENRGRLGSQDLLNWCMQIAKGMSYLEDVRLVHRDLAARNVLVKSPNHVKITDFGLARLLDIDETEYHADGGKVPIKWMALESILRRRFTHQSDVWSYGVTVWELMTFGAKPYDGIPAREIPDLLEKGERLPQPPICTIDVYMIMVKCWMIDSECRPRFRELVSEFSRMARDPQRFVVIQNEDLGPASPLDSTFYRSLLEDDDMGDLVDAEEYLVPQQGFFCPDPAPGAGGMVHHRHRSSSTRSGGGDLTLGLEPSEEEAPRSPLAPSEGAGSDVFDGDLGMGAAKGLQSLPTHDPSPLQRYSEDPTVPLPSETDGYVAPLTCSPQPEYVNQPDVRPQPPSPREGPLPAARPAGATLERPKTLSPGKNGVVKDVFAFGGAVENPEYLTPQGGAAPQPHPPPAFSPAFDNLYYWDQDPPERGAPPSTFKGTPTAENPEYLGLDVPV
Summary of the method: as §1

Flt-1 = biological target: T3, Flt-1 (Homo sapiens, UniProt P17948); assay: Kinase inhibition assay (33P transfer), Flt-1
T3 construct: Kinases are expressed as either kinase domains or full length constructs; made in house
Summary of the method: as §1

Tek = biological target: T4, Tek (Homo sapiens, UniProt Q02763); assay: Kinase inhibition assay (33P transfer), Tek; conditions: read-out: Tek-1
T4 construct: Kinases are expressed as either kinase domains or full length constructs; made in house
Summary of the method: as §1

AKT = biological target: T5, AKT (Homo sapiens, UniProt Q9Y243); assay: Kinase inhibition assay (33P transfer), AKT; conditions: Table 2, kinase inhibition class; read-out: AKT3-1
T5 construct: Kinases are expressed as either kinase domains or full length constructs; made in house
T5 sequence (Q9Y243 whole entry, the tested form may be a part): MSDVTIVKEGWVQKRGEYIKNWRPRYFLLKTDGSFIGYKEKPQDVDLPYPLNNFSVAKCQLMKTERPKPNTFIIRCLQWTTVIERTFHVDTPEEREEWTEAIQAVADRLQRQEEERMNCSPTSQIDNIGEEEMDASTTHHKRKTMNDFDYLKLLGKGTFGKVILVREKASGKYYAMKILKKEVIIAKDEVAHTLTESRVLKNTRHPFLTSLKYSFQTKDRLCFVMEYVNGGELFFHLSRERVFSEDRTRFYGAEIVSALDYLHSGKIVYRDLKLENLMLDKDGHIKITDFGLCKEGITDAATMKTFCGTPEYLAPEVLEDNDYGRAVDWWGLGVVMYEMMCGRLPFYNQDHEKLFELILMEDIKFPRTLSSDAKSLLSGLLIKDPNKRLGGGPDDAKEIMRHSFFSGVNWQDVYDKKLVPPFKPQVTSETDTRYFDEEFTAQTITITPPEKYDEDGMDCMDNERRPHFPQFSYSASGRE
Summary of the method: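 Each kinase, expressed as a GST- or polyHis-tagged domain or full-length protein, phosphorylated plate-attached poly(Glu,Tyr) 4:1 or poly(Arg,Ser) 3:1 using 33P-ATP. Bound radioactivity was measured by scintillation after a 0.5% phosphoric acid wash.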

EPHB4 = biological target: T6, EPHB4 (Homo sapiens, UniProt P54760); assay: Kinase inhibition assay (33P transfer), EPHB4; conditions: read-out: EPHB4-1
T6 construct: Kinases are expressed as either kinase domains or full length constructs; made in house
T6 sequence (P54760 16-987): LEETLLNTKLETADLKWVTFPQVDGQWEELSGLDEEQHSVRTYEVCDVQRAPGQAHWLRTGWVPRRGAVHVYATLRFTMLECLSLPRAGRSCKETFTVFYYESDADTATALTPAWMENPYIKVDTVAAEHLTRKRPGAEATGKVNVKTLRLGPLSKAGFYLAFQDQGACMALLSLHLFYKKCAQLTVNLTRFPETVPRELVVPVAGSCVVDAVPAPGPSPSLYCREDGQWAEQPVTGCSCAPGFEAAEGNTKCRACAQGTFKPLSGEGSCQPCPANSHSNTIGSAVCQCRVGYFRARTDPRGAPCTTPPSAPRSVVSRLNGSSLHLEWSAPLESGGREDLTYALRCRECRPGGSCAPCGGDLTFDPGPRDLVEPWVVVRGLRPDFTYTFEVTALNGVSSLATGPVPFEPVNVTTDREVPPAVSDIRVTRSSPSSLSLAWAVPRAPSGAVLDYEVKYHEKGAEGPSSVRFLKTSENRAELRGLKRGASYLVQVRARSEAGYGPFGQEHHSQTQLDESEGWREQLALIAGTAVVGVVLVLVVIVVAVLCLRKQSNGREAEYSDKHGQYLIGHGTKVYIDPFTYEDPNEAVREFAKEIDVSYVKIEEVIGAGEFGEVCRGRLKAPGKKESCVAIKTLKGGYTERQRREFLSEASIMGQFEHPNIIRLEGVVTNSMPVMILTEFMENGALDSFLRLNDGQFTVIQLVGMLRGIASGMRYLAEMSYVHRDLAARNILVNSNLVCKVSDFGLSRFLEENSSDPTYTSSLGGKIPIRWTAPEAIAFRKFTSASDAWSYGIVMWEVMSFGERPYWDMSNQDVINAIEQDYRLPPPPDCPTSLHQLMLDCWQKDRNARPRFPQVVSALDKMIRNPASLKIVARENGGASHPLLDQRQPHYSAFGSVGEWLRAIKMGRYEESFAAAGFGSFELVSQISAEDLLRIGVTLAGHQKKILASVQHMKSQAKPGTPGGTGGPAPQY

Hck-1 = biological target: T7, Hck-1 (Homo sapiens, UniProt P08631); assay: Kinase inhibition assay (33P transfer), Hck; conditions: Table 6, Hck-1 kinase inhibition class
T7 construct: Kinases are expressed as either kinase domains or full length constructs; made in house
T7 sequence (P08631 whole entry, the tested form may be a part): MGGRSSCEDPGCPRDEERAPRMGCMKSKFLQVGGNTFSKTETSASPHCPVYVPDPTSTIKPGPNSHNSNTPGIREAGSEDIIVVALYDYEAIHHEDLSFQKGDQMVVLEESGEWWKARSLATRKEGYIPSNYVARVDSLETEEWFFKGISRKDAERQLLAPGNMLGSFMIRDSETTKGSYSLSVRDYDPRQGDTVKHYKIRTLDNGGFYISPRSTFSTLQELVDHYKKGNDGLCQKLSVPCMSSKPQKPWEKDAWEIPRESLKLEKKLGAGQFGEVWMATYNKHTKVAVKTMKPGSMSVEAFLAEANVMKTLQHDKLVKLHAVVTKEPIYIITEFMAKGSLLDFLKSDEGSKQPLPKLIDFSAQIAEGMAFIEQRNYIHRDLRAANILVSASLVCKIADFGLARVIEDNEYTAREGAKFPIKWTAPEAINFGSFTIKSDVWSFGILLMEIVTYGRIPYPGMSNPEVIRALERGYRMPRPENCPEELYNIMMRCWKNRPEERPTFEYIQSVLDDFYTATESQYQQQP

Ret-1 = biological target: T8, Ret-1 (Homo sapiens, UniProt P07949); assay: Kinase inhibition assay (33P transfer), Ret; conditions: Table 6, Ret-1 kinase inhibition class
T8 construct: Kinases are expressed as either kinase domains or full length constructs; made in house
T8 sequence (P07949 29-1114): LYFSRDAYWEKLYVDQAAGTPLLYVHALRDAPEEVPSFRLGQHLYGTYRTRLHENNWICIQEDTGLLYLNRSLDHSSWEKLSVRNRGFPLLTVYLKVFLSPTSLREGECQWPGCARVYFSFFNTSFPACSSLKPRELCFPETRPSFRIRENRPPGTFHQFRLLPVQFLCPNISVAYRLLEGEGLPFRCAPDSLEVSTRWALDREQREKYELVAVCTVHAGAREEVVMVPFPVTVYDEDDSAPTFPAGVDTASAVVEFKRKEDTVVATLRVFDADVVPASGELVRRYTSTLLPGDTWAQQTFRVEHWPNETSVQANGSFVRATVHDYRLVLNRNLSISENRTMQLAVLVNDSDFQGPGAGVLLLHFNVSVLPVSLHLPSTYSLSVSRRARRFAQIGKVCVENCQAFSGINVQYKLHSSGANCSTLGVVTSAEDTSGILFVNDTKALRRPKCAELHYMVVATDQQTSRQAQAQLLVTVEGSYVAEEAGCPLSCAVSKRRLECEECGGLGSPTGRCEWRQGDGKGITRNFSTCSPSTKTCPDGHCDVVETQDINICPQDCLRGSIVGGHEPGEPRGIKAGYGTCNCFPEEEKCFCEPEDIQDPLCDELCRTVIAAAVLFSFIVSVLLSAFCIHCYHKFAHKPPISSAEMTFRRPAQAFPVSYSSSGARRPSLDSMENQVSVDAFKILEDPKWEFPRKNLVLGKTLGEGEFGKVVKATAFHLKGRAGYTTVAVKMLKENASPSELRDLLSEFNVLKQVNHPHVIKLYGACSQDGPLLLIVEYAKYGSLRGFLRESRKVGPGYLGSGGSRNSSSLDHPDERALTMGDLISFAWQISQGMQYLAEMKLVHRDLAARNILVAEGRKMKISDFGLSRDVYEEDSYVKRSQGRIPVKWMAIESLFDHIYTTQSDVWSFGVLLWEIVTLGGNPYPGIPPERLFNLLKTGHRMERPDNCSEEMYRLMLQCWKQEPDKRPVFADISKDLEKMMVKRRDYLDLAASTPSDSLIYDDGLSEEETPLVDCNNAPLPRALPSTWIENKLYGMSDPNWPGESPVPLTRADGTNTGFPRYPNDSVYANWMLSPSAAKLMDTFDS

T1 sequence (P00533 25-1210, species assumed): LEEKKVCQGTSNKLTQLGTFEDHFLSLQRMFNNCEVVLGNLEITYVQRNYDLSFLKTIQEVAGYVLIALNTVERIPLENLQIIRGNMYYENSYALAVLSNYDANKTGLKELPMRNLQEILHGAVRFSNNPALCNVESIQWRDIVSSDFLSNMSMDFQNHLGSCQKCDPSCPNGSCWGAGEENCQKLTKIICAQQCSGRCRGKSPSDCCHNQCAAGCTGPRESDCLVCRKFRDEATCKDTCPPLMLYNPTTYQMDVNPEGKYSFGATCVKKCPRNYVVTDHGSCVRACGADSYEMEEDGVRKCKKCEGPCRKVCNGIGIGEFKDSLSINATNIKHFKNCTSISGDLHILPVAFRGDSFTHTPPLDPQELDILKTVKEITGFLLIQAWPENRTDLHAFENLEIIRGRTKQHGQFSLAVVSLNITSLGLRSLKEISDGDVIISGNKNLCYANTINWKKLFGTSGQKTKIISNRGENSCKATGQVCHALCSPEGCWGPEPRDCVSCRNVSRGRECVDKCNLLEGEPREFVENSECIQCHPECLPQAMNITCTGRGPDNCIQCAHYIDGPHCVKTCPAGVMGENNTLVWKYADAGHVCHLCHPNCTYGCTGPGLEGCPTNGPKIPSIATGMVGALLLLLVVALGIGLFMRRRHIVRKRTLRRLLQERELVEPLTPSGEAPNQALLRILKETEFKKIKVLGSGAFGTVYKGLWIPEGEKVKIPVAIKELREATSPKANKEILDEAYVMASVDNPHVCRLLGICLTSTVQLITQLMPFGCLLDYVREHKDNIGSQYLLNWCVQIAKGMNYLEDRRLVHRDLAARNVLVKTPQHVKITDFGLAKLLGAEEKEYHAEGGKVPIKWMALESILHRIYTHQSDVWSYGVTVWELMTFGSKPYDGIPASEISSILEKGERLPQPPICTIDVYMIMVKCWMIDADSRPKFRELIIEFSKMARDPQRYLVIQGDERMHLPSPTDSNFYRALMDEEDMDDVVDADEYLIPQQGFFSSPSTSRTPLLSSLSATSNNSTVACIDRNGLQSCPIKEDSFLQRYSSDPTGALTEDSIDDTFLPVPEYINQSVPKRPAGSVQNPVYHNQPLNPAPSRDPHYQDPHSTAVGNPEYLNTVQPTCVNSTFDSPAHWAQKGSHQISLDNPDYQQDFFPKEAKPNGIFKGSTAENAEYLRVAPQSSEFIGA

Row | Compound | IC50 (EGFR) | IC50 (ErbB2) | IC50 (Flt-1) | IC50 (Tek) | IC50 (AKT) | IC50 (EPHB4) | IC50 (Hck-1) | IC50 (Ret-1)
1 | COc1cc(Nc2ncnc(Nc3cccc(C)c3)n2)cc(OC)c1OC [Compound 64] | < 1.09 µM | 1.09 to 6.53 µM | > 12.2 µM | > 12.2 µM | > 12.2 µM | 1.09 to 6.53 µM | > 12.2 µM | > 12.2 µM
2 | COc1cc(Nc2ncnc(Nc3cccc4cccnc34)n2)cc(OC)c1OC [Compound 97] | > 11.1 µM | > 11.1 µM | 5.93 to 8.65 µM | > 11.1 µM | > 11.1 µM | > 11.1 µM | > 11.1 µM | 0.989 to 5.93 µM
3 | COc1cc(Nc2ncnc(Nc3ccc4ccccc4c3)n2)cc(OC)c1OC [Compound 96] | 0.991 to 5.95 µM | < 0.991 µM | 8.68 to 11.2 µM | > 11.2 µM | > 11.2 µM | > 11.2 µM | 8.68 to 11.2 µM | 5.95 to 8.68 µM
4 | COc1cc(Nc2ncnc(Nc3cc(-c4ccccc4)n[nH]3)n2)cc(OC)c1OC [Compound 102] | 0.954 to 5.72 µM | 0.954 to 5.72 µM | < 0.954 µM | 5.72 to 8.34 µM | > 10.7 µM | < 0.954 µM | 5.72 to 8.34 µM | 0.954 to 5.72 µM
5 | COc1cc(Nc2ncnc(Nc3cccc4ccccc34)n2)cc(OC)c1OC [Compound 98] | < 0.991 µM | < 0.991 µM | > 11.2 µM | > 11.2 µM | > 11.2 µM | > 11.2 µM | > 11.2 µM | > 11.2 µM
